pIC50: −log10 of the molar value.
How the values were obtained:
[1] = target: T1, rat tracheal rings (ETB receptors) (Rattus norvegicus, UniProt P21451); experiment: Inhibition of sarafotoxin S6c-induced contraction of isolated rat tracheal rings; assay type: cell-based; conditions: contraction induced by sarafotoxin S6c, 10 min incubation with the test compound; read-out: pA2 trachea (converted)
T1 construct: The thoracic aorta or trachea were excised, dissected and cut in 3-5 mm rings; from tissue; host or cells: tracheal rings of adult Wistar rats, epithelium removed
T1 sequence (P21451 27-442): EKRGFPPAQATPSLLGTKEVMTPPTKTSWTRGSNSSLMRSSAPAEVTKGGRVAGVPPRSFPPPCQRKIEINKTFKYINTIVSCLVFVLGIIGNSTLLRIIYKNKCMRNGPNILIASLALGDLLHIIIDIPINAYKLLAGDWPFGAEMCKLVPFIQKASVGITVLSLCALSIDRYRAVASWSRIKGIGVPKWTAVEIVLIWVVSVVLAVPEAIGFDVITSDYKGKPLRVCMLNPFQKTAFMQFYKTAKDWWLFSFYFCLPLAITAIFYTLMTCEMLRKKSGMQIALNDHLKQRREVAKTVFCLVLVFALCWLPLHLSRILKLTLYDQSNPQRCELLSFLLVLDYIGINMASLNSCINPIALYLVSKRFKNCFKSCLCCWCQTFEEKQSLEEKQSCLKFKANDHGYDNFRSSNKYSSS
Method: 2) Inhibition of Endothelin-induced Contractions on Isolated Rat Aortic Rings (ETA Receptors) and Rat Tracheal Rings (ETB Receptors)
The functional inhibitory potency of the endothelin antagonists was assessed by their inhibition of the contraction induced by endothelin-1 on rat aortic rings (ETA receptors) and of the contraction induced by sarafotoxin S6c on rat tracheal (ETB receptors). Adult Wistar rats were anesthetized and exsanguinated. The thoracic aorta or trachea were excised, dissected and cut in 3-5 mm rings. The endothelium/epithelium was removed by gentle rubbing of the intimal surface. […] The rings were connected to force transducers and isometric tension was recorded (EMKA Technologies SA, Paris, France). The rings were stretched to a resting tension of 3 g (aorta) or 2 g (trachea). […] The functional inhibitory potency of the test compound was assessed by calculating the concentration ratio, i.e. the shift to the right of the EC50 induced by different concentrations of test compound. EC50 is the concentration of endothelin needed to get a half-maximal contraction, pA2 is the negative logarithm of the antagonist concentration which induces a two-fold shift in the EC50 value.

[2] = target: T2, rat aortic rings (ETA receptors) (Rattus norvegicus, UniProt P26684); experiment: Inhibition of endothelin-1-induced contraction of isolated rat aortic rings
T2 sequence (P26684 21-426): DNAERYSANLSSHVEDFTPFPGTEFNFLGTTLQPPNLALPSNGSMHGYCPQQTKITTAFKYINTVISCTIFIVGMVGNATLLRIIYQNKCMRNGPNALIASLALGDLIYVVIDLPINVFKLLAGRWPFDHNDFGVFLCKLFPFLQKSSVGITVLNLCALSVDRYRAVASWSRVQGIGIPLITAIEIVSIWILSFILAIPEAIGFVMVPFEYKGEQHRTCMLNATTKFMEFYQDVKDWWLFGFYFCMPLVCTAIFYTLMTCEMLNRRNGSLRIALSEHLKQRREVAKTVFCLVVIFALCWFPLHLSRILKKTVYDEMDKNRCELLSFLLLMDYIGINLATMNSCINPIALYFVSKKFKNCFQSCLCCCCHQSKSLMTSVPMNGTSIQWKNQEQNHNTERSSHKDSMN

[3] = target: T3, human recombinant ETB receptors (Homo sapiens, UniProt P24530); experiment: Inhibition of [125I]ET-1 binding to membranes of CHO cells expressing human recombinant ETB receptors; also: 2.5% DMSO
T3 construct: expressed in transfected cells; host or cells: CHO cells (microsomal membranes)
T3 sequence (P24530 27-442): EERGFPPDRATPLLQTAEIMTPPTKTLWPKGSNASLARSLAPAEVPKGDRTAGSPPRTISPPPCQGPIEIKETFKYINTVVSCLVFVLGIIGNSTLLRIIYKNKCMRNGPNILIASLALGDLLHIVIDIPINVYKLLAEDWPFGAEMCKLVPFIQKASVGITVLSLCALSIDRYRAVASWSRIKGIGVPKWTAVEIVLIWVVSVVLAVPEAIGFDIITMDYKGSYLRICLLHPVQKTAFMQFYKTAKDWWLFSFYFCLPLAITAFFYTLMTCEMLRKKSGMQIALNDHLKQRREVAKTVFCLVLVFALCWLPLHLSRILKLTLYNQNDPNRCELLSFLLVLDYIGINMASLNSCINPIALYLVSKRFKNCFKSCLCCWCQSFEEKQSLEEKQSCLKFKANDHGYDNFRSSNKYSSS
Method: (§1) 1) Inhibition of Endothelin Binding to Membranes from CHO Cells Carrying Human ET Receptors:
(§2) For competition binding studies, membranes of CHO cells expressing human recombinant ETA or ETB receptors were used.
(§3) The assay was performed in 200 uL 50 mM Tris/HCl buffer, pH 7.4, including 25 mM MnCl2, 1 mM EDTA and 0.5% (w/v) BSA in polypropylene microtiter plates. […] After two h, the membranes were filtered on filterplates containing GF/C filters (Unifilterplates from Canberra Packard S.A. Zürich, Switzerland). To each well, 50 uL of scintillation cocktail was added (MicroScint 20, Canberra Packard S.A. Zürich, Switzerland) and the filter plates counted in a microplate counter (TopCount, Canberra Packard S.A. Zürich, Switzerland).
(§4) All the test compounds were dissolved, diluted and added in DMSO.

[4] = target: T4, human recombinant ETA receptors (Homo sapiens, UniProt P25101); experiment: Inhibition of [125I]ET-1 binding to membranes of CHO cells expressing human recombinant ETA receptors; also: 2.5% DMSO
T4 construct: expressed in transfected cells; host or cells: CHO cells (microsomal membranes)
T4 sequence (P25101 21-427): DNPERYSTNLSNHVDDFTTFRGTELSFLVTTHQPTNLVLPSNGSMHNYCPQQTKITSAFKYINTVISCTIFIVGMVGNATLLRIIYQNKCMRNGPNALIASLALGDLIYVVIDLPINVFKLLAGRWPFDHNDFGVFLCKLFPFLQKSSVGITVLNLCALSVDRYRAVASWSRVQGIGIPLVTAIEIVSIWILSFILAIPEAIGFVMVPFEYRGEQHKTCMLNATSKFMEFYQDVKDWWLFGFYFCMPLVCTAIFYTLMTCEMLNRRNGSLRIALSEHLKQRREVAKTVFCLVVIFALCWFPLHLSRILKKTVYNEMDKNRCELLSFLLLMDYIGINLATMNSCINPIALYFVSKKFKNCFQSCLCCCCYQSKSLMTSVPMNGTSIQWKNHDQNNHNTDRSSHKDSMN
Method: as §1, §2, §3, §4

**Q.** For `Cc1ccc(-c2c(NS(=O)(=O)c3ccc(C(C)C)cn3)nc(-c3ccncc3)nc2OCC#CCO)cc1` [Example 11d, 5-isopropyl-N-[6-(4-hydroxy-2-butynyloxy)-5-(p-tolyl)-2-(4-pyridyl)-4-pyrimidinyl]-2-pyridine sulfonamide], which Kb [1] is on record?
**A.** 93.3 nM

**Q.** What about the Kb [2] of the same molecule?
**A.** 89.1 nM

**Q.** What about the pIC50 [3] of the same molecule?
**A.** 7.01

**Q.** What about the pIC50 [4] of the same molecule?
**A.** 7.31

**Q.** With `COc1cc(OC)nc(OCC#CCOc2nc(-c3ccncc3)nc(NS(=O)(=O)c3ccc(C(C)C)cn3)c2Oc2ccccc2OC)n1` [Example 18, 5-isopropyl-N-[6-(4-(4,6-dimethoxy-2-pyrimidinyloxy)-2-butynyloxy)-5-(o-methoxyphenoxy)-2-(4-pyridyl)-4-pyrimidinyl]-2-pyridine sulfonamide] as the molecule, how does the pIC50 [3] read?
**A.** 7.44

**Q.** And the pIC50 [4]?
**A.** 7.10

**Q.** Which Kb [1] does the source give for `COc1ccccc1Oc1c(NS(=O)(=O)c2ccc(C(C)(C)C)cc2)nc(-c2ccncc2)nc1OCC#CCOc1ncccn1` [Example 19, 4-tert.-butyl-N-[6-(4-(2-pyrimidinyloxy)-2-butynyloxy)-5-(o-methoxyphenoxy)-2-(4-pyridyl)-4-pyrimidinyl]-benzene sulfonamide] here?
**A.** 24 nM

**Q.** And the Kb [2]?
**A.** > 10000 nM

**Q.** And the pIC50 [3]?
**A.** 7.35

**Q.** And the pIC50 [4]?
**A.** 6.95

**Q.** With `COc1cc(OC)nc(OCC#CCOc2nc(-c3ccncc3)nc(NS(=O)(=O)c3ccc(C(C)(C)C)cc3)c2Oc2ccccc2OC)n1` [Example 21, 4-tert.-butyl-N-[6-(4-(4,6-dimethoxy-2-pyrimidinyloxy)-2-butynyloxy)-5-(o-methoxyphenoxy)-2-(4-pyridyl)-4-pyrimidinyl]-benzene sulfonamide] as the molecule, how does the pIC50 [3] read?
**A.** 7.36

**Q.** What about the pIC50 [4] of the same molecule?
**A.** 6.64

**Q.** Which melting point does the source give for `COc1ccccc1Oc1c(NS(=O)(=O)c2ccc(C(C)C)cn2)nc(-c2ccncc2)nc1OCC#CCOC(=O)Nc1cccc(C)c1` [Example 54, m-tolyl-carbamic acid 4-[6-(5-isopropyl-pyridine-2-sulfonylamino)-5-(2-methoxy-phenoxy)-2-pyridin-4-yl-pyrimidin-4-yloxy]-but-2-ynyl ester] here?
**A.** 163 to 165 °C

**Q.** What does the source list for `COc1ccccc1Oc1c(NS(=O)(=O)c2ccc(C(C)C)cn2)nc(C)nc1OCC#CCOC(=O)Nc1ccccc1` [Example 70]?
**A.** pIC50 [3]: 6.43; pIC50 [4]: 7.03

**Q.** What does the source list for `COCC#CCOc1nc(N2CCOCC2)nc(NS(=O)(=O)c2ccc(C(C)C)cn2)c1Oc1ccccc1OC` [Example 94, 5-isopropyl-N-[6-(4-methoxy-2-butynyloxy)-5-(o-methoxyphenoxy)-2-(N-morpholino)-4-pyrimidinyl]-2-pyridine sulfonamide]?
**A.** pIC50 [3]: 6.97; pIC50 [4]: 7.89
